Results published in patent publication US20200164065A1, “TRITERPENE SAPONIN ANALOGUES” (ADJUVANCE TECHNOLOGIES, INC., priority 2017, published 2020).
Read-outs that look alike come from different tables or passages of the source.

Tests used:
[1] = tested on: liver; assay: Pilot pharm/tox study: histopathology of 33 tissues
[2] = Stability at 37° C.; assay type: physicochemical; details: after two weeks at 37° C.
Experimental: (§1) Natural and synthetic QS-21 (SQS-21 or SAPONEX®) and a variety of analogs were tested for hemolytic activity.

[3] = Companion toxicity study: body mass three days after immunization; details: 20 mcg
[4] = tested on: hemolysis; assay: Hemolytic assay; assay type: cell-based
Experimental: as §1

[5] = cited from earlier work
[6] = Pharm/tox study with Adacel, QS-21 and TiterQuil-1055: body weight
Text: A 0.5 mcg dose of Adacel was selected for a pharmacology/toxicology (pharm/tox) study.
Mice were vaccinated SC on days 1 and 15, weighed daily, and bled and sacrificed on day 22, except for group 7 which was sacrificed on day 29.

[7] = tested on: HA from H3N2 virus; assay: Anti-HA total IgG ELISA after immunization with HA protein; assay type: in vivo, female BL/6 mice; details: 50 μg Compound I-4 with 9 or 3 μg/ml HA protein vs 9 μg/ml HA alone, day 21 serum
[8] = mouse, in vivo

Compound | liver histopathology (hepatocellular cytoplasmic vacuolization) ([1]; mouse, in vivo, sc) | degraded [2] | body mass lost on average [3] | hemolytic activity [4] | tolerated / maximum dose in cancer patients ([5]; cancer patients, above it local and systemic side effects) [µg] | maximum dose for healthy patients ([5]; healthy patients) [µg] | highest practical tolerable dose ([5]; well (non-cancer) adult and child recipients) [µg] | body weight lost ([6]; mice injected with 20 mcg) | liver histopathology (hepatocellular cytoplasmic vacuolization) ([1]; SC days 1 and 15, sacrificed day 22, 50 mcg TiterQuil-1055, 20 mcg QS-21, Adacel 2.5 mcg pertussis toxin) | anti-HA total IgG endpoint titer and dose sparing of HA [7] | body mass gained on average [8] [%] | weight loss (30 mcg dose with Engerix-B) | weight loss (100 mcg dose with Engerix-B) [%] | weight loss (300 mcg dose with Engerix-B) [%] | weight loss ([6]; mice receiving 50 mcg)
QS-21 [reference compound] | Mild vacuolar changes | 20% | 8-10% | highly hemolytically active | 100 to 150 | ~50 | 25 to 50 | 8-9% | – | – | – | – | – | – | –
CC1O[C@@H](OC2C(O)[C@@H](NC(=O)CCCCCCCCCCC(=O)O)C(CO)O[C@H]2OC(=O)[C@]23CCC(C)(C)CC2C2=CCC4C5(C)CC[C@H](O)C(C)(C=O)C5CCC4(C)C2(C)CC3O)C(O)C(O)[C@H]1O[C@@H]1OC[C@@H](O)C(O)C1O (some centres unmarked) [Compound I-4] | – | without detectable degradation | – | much lower or undetectable hemolytic activity | – | – | – | – | No changes at all | enhances anti-HA total IgG and provides a dose sparing effect on HA concentration | 5 | No weight loss | 4 | 5 | No weight loss
